Here are results for 3 compounds from patent US20020147137A1, “Medical use of alpha1-acid glycoprotein (AAG) or orosomucoid” (Hamosan Erzeugung Pharmazeutischer Grundstoffe Gesellschaft …, priority 1999, published 2002).

A short description of series [1]: Withdrawal by means of plasma exchange (comparative): methadone, methadone metabolites and thebaine measured in urine. The note with it: for Substance measured in urine: before 1. PE / before therapy; for concentration at 1 day / concentration at 2 day / concentration at 3 day / concentration at 4 day / concentration at 5 day / concentration at 6 day / concentration at 7 day / concentration at 17 day / concentration at 24 day / concentration at 31 day: human, in vivo. The source says:
In the withdrawal therapy of a methadone addict, one of the inventors has practised the method of plasma exchange (PE) for assisting and accelerating the removal of methadone from the body, i.e., blood was taken from the patient, the cellular components were separated and re-infused into the body, and instead of the patient's own plasma portion, the plasma of a donor was supplied.
The patient was 2 x connected to the plasmapheresis (1st and 3rd day). […] Besides, the coagulation parameters were measured because of the hypercoagulability.

Series [2] relates to patient in methadone withdrawal. Description: Methadone withdrawal by administration of α1-acid glycoprotein: clinical course. The series is classed as in vivo, human (patient). On the procedure:
The patient's circulation is stable, the patient is co-operative, a venous cannula and a peripheral venous catheter on the left side are set. Immediately after admission, beginning of sedation with Dormicum 0.4 mg/kg/d, Clonidin 0.02 mg/kg/d. Dormicum bolus administration at admission.
Volume substitution with Elohaest, human albumin and electrolyte solution.
From 4:05 p.m. to 4:15 p.m., renewed hemodilution: 400 ml of own blood was drawn.
Urinating is without any problems and spontaneous.
The patient's only problems are nicotine withdrawal.
Therapy with Clonidin and Dormicum is changed to oral (4×0.075 mg Catapresan and 4×7.5 mg Dormicum per os) with sufficient magnesium substitution in addition. Subjectively, the patient feels well and is free from any discomfort.
Removal of the peripheral venous catheter, continuation of the oral therapy, the patient is moved to the LNKH while being in a good general state and subjectively feeling well.

Series [3] has as its system isolated perfused rat livers. The note with it: protein added to perfusate; cited from earlier work.

Regarding `CCC(=O)C(CC(C)N(C)C)(c1ccccc1)c1ccccc1` (racemic) [methadone, reference compound], in series [1], the “Substance measured in urine” value was 15 µg/mL, the concentration at 1 day was determined as 3000 ng/mL, the concentration at 2 day came out at 1900 ng/mL and the concentration at 3 day was 500 ng/mL. In series [1], the concentration at 4 day is 500 ng/mL, the concentration at 5 day turned out to be 400 ng/mL, the concentration at 6 day stood at 300 ng/mL and the concentration at 7 day was 500 ng/mL. In series [1], the concentration at 17 day was determined as 0 ng/mL, the concentration at 24 day stood at 0 ng/mL and the concentration at 31 day was 0 ng/mL.
Consider `COC1=CC=C2[C@H]3Cc4ccc(OC)c5c4[C@@]2(CCN3C)[C@H]1O5` [thebaine], for which, in series [1], the “Substance measured in urine” value is 7 µg/mL, the concentration at 1 day was 0 ng/mL, the concentration at 2 day amounted to 0 ng/mL and the concentration at 3 day came to 0 ng/mL. In series [1], the concentration at 4 day worked out at 0 ng/mL, the concentration at 5 day was 0 ng/mL, the concentration at 6 day stood at 0 ng/mL and the concentration at 7 day was found to be 0 ng/mL. Moreover, in series [1], the concentration at 17 day was 0 ng/mL, the concentration at 24 day was found to be 0 ng/mL and the concentration at 31 day was 0 ng/mL.
As to α1-acid glycoprotein, in series [2] (3 grams in 500 ml of infusion solution at 10 a.m.), the “tolerability after first administration” value is “first symptoms with slight sweating, otherwise no problems so far”. Besides, the “acute reaction after second administration” value in series [2] (6 grams in merely 150 ml of infusion solution at 4:30 p.m.) is “symptoms of an acute reaction, similar to an allergy”. The physical withdrawal symptoms entry is reported as “no physical withdrawal symptoms” in series [2] (9/20/97, day after AAG administration) and “no particular physical withdrawal symptoms” in series [2] (9/21/97, second day after AAG administration). Besides, the “withdrawal symptoms after AAG administration” value in series [2] (after the short crisis following the 2nd partial amount) is “intensive recovery phase without any withdrawal symptoms”. The “total time until treatment could be terminated” value in series [2] (methadone withdrawal with AAG, 2nd patient) is “three”. In addition, in series [3], the “influence on elimination of drugs capable of being bound” value is reported as “slowed down”. For the same compound, the “influence on elimination of nonbinding drugs” value in series [3] is listed as “no influence”.
